Assay results from patent US20200397894A1, “COMPOSITIONS AND METHODS FOR TREATING CANCER” (University of Virginia Patent Foundation, priority 2016, published 2020).

Key:
[1] = tested on: DM331 and SK-MEL-24 cells from PLX4720-resistant tumors; assay: In vitro sensitivity of cells extracted ex vivo from PLX4720-resistant tumors; type: cell-based, human; conditions: DM331 and SK-MEL-24 cells extracted ex vivo
Description: Proliferation and viability of cultured cells was measured by CELLTITER96® Non-radioactive Cell Proliferation Assay (Promega Corporation; Madison, Wis., United States of America). Briefly, various wild type and mutant BRAF melanoma cells were seeded in 96 well plates and treated with pevonedistat, vemurafenib, or the combination pevonedistat and vemurafenib at various concentrations. Control cells were treated with DMSO. 96 hours following treatment, cells were stained with the dye solution according to the manufacturer's protocol. Absorbance was recorded at 570 nm and growth curves were established. […] Cells were counted every 24 hours using a COUNTESS™ Automated Cell Counter (INVITROGEN™, Carlsbad, Calif., United States of America), and harvested at the indicated times for PI staining and FACS analysis (cell cycle profile) or for immunoblotting.
The effects of pevonedistat, vemurafenib, and/or silencing of various cell cycle-associated proteins by siRNA on cell cycle distribution and rereplication were assessed by propidium iodide staining and flow cytometry of asynchronous melanoma cultures. […]

[2] = tested on: DM93 cells; assay: Cell cycle distribution and rereplication by propidium iodide staining and FACS; type: cell-based, human
Description: The effects of pevonedistat, vemurafenib, and/or silencing of various cell cycle-associated proteins by siRNA on cell cycle distribution and rereplication were assessed by propidium iodide staining and flow cytometry of asynchronous melanoma cultures. Synchronization of cells was not employed to avoid bias and to be able to measure the impact of these perturbations on proliferating cancer cells. […] Cells were washed with cold PBS, harvested, and fixed in 70% (v/v) ethanol. Cells were subsequently treated with 20 μg of DNase-free RNase and stained with propidium iodide according to instructions of the manufacturer. Samples were analyzed on a FACSCAN™ (Becton, Dickinson and Company, Franklin Lakes, N.J., United States of America) and G0-G1, S, and G2-M fractions were segmented, and apoptotic (sub-G1 DNA content) and rereplicating (>G2/M DNA content) fractions were determined using FLOWJO® (FLOWJO, LLC, Ashland, Oreg., United States of America) and ModFit (Verity Software House, Topsham, Me., United States of America) software.

[3] = tested on: DM331 xenografts; assay: Melanoma flank xenograft in nude mice; type: in vivo; conditions: vs. vehicle; PLX4720 in rodent diet 417 mg/kg
Description: All animal experiments were performed after approval of animal protocols by the Animal Care and Use Committee (ACUC) of the University of Virginia. Animals were housed and handled in accordance with the guidelines of the ACUC of the University of Virginia. The effect of pevonedistat on melanoma growth was tested in flank xenograft models. Foxn1^nu (20-25 g body weight, 4-5 weeks old females) athymic nude immune-deficient mice (Harlan Laboratories, now Envigo, Indianapolis, Ind., United States of America) were used in this study. Pevonedistat was dissolved in sterile 10% DMSO containing PBS (stock 1 mM), filtered, and stored in −20° C. until use. DM93, VMM39, SLM2, DM331, or SK-MEL-24 (2×10^6) melanoma cells were implanted in both flanks of immune-deficient mice (n=12 mice per group) and tumor growth was monitored until they grow to an average volume of 150-200 mm^3, and mice were randomized into groups for treatment. Animals were administered 0.2 mL pevonedistat solution (30 or 60 mg/kg body weight as indicated) intraperitoneally on a schedule of two cycles of five-day treatment followed by five treatment-free days, for 3 weeks, or more as indicated. Control animals were treated with an equal volume of sterile vehicle (10% DMSO in PBS). Where indicated, mice received control rodent diet, or rodent diet with 417 mg/kg PLX4720 (Research Diets, Inc. New Brunswick, N.J., United States of America). Tumors were measured with an electronic caliper every other day for 3 weeks post-drug injection. Animal weight was recorded once a week to detect any weight loss due to the toxicity of drug treatment or tumor burden. At the end of the treatment, animals were euthanized and tumors harvested for further processing. The results shown are mean tumor volumes±s.e.m; *p<0.05, **p<0.01, ***p<0.001.

[4] = tested on: VMM39 cells; assay: Rereplication by propidium iodide staining and FACS; type: cell-based, human; conditions: retroviral overexpression of SET8 and/or p21 species
Description: The effects of pevonedistat, vemurafenib, and/or silencing of various cell cycle-associated proteins by siRNA on cell cycle distribution and rereplication were assessed by propidium iodide staining and flow cytometry of asynchronous melanoma cultures. Synchronization of cells was not employed to avoid bias and to be able to measure the impact of these perturbations on proliferating cancer cells. Briefly, asynchronous melanoma cell lines were treated with pevonedistat or vemurafenib, or transfected with si-CDT1, si-CDT2, si-SET8, si-p21, sigeminin, si-EMI1, or si-GL2 for a time ranging from 24 to 96 hours. Cells were washed with cold PBS, harvested, and fixed in 70% (v/v) ethanol. Cells were subsequently treated with 20 μg of DNase-free RNase and stained with propidium iodide according to instructions of the manufacturer. Samples were analyzed on a FACSCAN™ (Becton, Dickinson and Company, Franklin Lakes, N.J., United States of America) and G0-G1, S, and G2-M fractions were segmented, and apoptotic (sub-G1 DNA content) and rereplicating (>G2/M DNA content) fractions were determined using FLOWJO® (FLOWJO, LLC, Ashland, Oreg., United States of America) and ModFit (Verity Software House, Topsham, Me., United States of America) software.

With `CCCS(=O)(=O)Nc1ccc(F)c(C(=O)c2c[nH]c3ncc(-c4ccc(Cl)cc4)cc23)c1F` [vemurafenib, N-(3-(5-(4-chlorophenyl)-1H-pyrrolo[2,3-b]pyridine-3-carbonyl)-2,4-difluorophenyl)propane-1-sulfonamide] the “sensitivity in vitro of cells from PLX4720-resistant tumors” value [1] was “remained insensitive”, the “cells undergoing pevonedistat-induced rereplication after vemurafenib pretreatment” value ([2]; DM93, pretreatment with vemurafenib for 24 hours, then 1 μM pevonedistat 48 hours) was 16% and the “effect on cell cycle” value ([2]; DM93 cells) was “robust G1 growth arrest and complete depletion of S-phase cells”.

For `CCCS(=O)(=O)Nc1ccc(F)c(C(=O)c2c[nH]c3ncc(Cl)cc23)c1F` [PLX4720], the “growth of DM331 xenografts” value [3] was “inhibited”.

B1: Wild-type SET8: N-terminal FLAG-tagged Set8 protein encoded by a retrovirus (protein, UniProt Q9NQR1 1-393, looked up)
N-lysine methyltransferase …: MGEGGAAAALVAAAAAAAAAAAAVVAGQRRRRLGRRARCHGPGRAAGGKMSKPCAVEAAAAAVAATAPGPEMVERRGPGRPRTDGENVFTGQSKIYSYMSPNKCSGMRFPLQEENSVTHHEVKCQGKPLAGIYRKREEKRNAGNAVRSAMKSEEQKIKDARKGPLVPFPNQKSEAAEPPKTPPSSCDSTNAAIAKQALKKPIKGKQAPRKKAQGKTQQNRKLTDFYPVRRSSRKSKAELQSEERKRIDELIESGKEEGMKIDLIDGKGRGVIATKQFSRGDFVVEYHGDLIEITDAKKREALYAQDPSTGCYMYYFQYLSKTYCVDATRETNRLGRLINHSKCGNCQTKLHDIDGVPHLILIASRDIAAGEELLYDYGDRSKASIEAHPWLKH
modifications: N-terminal FLAG tag
notes: N-terminal FLAG-tagged Set8 protein encoded by a retrovirus
In the case of B1, the “Percent Rereplication in DM93” value ([2]; retroviral overexpression of SET8 and/or p21 species) is reported as 3.87% and the “Percent Rereplication in VMM39” value [4] is reported as 4.98%.

B2: Wild-type CDT1: wild-type CDT1 ectopically expressed from retrovirus (protein, UniProt Q9H211 1-546, looked up)
DNA replication factor Cdt1: MEQRRVTDFFARRRPGPPRIAPPKLACRTPSPARPALRAPASATSGSRKRARPPAAPGRDQARPPARRRLRLSVDEVSSPSTPEAPDIPACPSPGQKIKKSTPAAGQPPHLTSAQDQDTISELASCLQRARELGARVRALKASAQDAGESCTPEAEGRPEEPCGEKAPAYQRFHALAQPGLPGLVLPYKYQVLAEMFRSMDTIVGMLHNRSETPTFAKVQRGVQDMMRRRFEECNVGQIKTVYPASYRFRQERSVPTFKDGTRRSDYQLTIEPLLEQEADGAAPQLTASRLLQRRQIFSQKLVEHVKEHHKAFLASLSPAMVVPEDQLTRWHPRFNVDEVPDIEPAALPQPPATEKLTTAQEVLARARNLISPRMEKALSQLALRSAAPSSPGSPRPALPATPPATPPAASPSALKGVSQDLLERIRAKEAQKQLAQMTRCPEQEQRLQRLERLPELARVLRSVFVSERKPALSMEVACARMVGSCCTIMSPGEMEKHLLLLSELLPDWLSLHRIRTDTYVKLDKAADLAHITARLAHQTRAEEGL
For B2, the “Percent Rereplication” value ([2]; retroviral overexpression of CDT1 species, DM93 per text) was 51.4%.
